Data as given in patent publication US20170349593A1, “BTK INHIBITORS” (MERCK SHARP & DOHME CORP., priority 2014, published 2017).

Assays:
[1] = biological target: T1, BTK enzyme (recombinant full-length BTK, hBTK) (Homo sapiens, UniProt Q06187); experiment: Btk enzyme activity assay (LANCE TR-FRET); assay type: biochemical; conditions: 50 pM hBTK, 25 μM ATP, 60 minute compound and enzyme incubation, concentration range 1 μM to 0.017 nM, read-out: BTK binding IC50
T1 construct: recombinant protein from baculovirus-transfected S 19 cells: full-length BTK, 6 HIS-tag cleaved; 6 HIS-tag (cleaved yes); made in house
T1 sequence (Q06187 whole entry): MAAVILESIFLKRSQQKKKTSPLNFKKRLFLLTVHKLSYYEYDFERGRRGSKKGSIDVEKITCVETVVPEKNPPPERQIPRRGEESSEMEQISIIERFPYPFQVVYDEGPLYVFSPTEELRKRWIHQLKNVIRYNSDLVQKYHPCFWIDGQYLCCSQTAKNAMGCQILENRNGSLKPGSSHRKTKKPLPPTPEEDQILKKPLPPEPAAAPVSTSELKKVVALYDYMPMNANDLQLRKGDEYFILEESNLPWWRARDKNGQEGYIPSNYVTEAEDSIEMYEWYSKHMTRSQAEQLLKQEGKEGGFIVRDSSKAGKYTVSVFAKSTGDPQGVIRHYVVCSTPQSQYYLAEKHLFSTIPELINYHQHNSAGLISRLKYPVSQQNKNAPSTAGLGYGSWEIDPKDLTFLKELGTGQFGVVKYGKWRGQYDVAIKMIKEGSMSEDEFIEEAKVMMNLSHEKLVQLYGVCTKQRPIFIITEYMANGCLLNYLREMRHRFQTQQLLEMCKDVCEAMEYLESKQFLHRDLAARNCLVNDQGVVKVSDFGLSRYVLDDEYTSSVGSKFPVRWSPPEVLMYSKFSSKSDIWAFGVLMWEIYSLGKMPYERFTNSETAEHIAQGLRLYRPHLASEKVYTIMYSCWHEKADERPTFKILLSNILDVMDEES

[2] = test system: adenosine uptake into HeLa cells; experiment: [3H]Adenosine uptake assay; assay type: cell-based; conditions: Homo sapiens; accumulation of [3H]adenosine into HeLa cells; concentration range 10 μM to 0.032 nM; read-out: ADU inhibition IC50
Experimental: Compounds are also screened in an adenosine uptake functional cellular assay using the protocol described below:
Adenosine uptake activity was determined by monitoring the accumulation of tritiated adenosine into HeLa cells (ATCC catalog #CCL-2) using a PMT-based radiometric detection instrument. In this assay, the potency (IC50) of each compound was determined from a ten point (1:3 serial dilution; final compound concentration range in assay from 10 μM to 0.032 nM) titration curve using the following outlined procedure. To each well of a 96-well CytoStar-T scintillating microplate (Perkin Elmer Catalog #RPNQ0163), 25 000 HeLa cells in 100 μL of growth medium comprising: Minimum Essential Media (Life Technologies Catalog #11095-080)+10% (v/v) foetal bovine serum (FBS; Sigma Aldrich Catalog #F2442) was added. These cells were incubated overnight at 37° C. in a humidified atmosphere with 5% (v/v) CO2. After this time the growth medium was removed and replaced with 40 μL assay medium comprising: Hanks balanced salts solution (HBSS; Thermo Fisher Catalog # SH30268.01)+5% (v/v) FBS. Compound stock solutions in DMSO were diluted in assay medium to 2.5× final compound concentration maintaining a constant DMSO concentration of 0.25% (v/v). 40 μL of compound in assay medium was dispensed into individual wells of the Cytostar-T plates and the plates were incubated for 30 minutes under ambient laboratory conditions. Following this incubation, 20 μL of 500 nM [^3H] adenosine (American Radiolabeled Chemicals Inc. Catalog #ART0287) in assay medium was added and incubated for a further 60 minutes under ambient laboratory conditions. The amount of radiolabel accumulation was then determined using a Perkin Elmer Topcount NXT microplate reader. In brief, HeLa cells adhere to the bottom of the Cytostar-T plate, uptake of [^3H]adenosine into these cells brings the radiolabel into sufficient proximity to excite the scintillant in the base of the plates. These events are captured by single PMT, time-resolved coincidence counting. IC50 values were determined by 4 parameter robust fit of counts per second values vs. (Log10)) compound concentrations.

SMILES: COc1cc(C(=O)Nc2cc(C(F)(F)F)ccn2)ccc1-c1nc([C@H]2CN(C(=O)C3CN(C(=O)C4CC4)C3)[C@@H](C)CO2)n2ccnc(N)c12 [Example 34, 4-{8-amino-3-[(2R,5S)-4-{[1-(cyclopropylcarbonyl)azetidin-3-yl]carbonyl}-5-methylmorpholin-2-yl]imidazo[1,5-a]pyrazin-1-yl}-3-methoxy-N-[4-(trifluoromethyl)pyridin-2-yl]benzamide]
- IC50 [1]: 2.65 nM
- IC50 [2]: ≥ 10000 nM

SMILES: COc1cc(C(=O)Nc2cc(C(F)(F)F)ccn2)ccc1-c1nc([C@H]2CN(C(=O)C3CN(Cc4c(F)cccc4F)C3)[C@@H](C)CO2)n2ccnc(N)c12 [Example 35, 4-{8-amino-3-[(2R,5S)-4-{[1-(2,6-difluorobenzyl)azetidin-3-yl]carbonyl}-5-methylmorpholin-2-yl]imidazo[1,5-a]pyrazin-1-yl}-3-methoxy-N-[4-(trifluoromethyl)pyridin-2-yl]benzamide]
- IC50 [1]: 3.21 nM
- IC50 [2]: 747 nM

SMILES: COc1cc(C(=O)Nc2cc(C(F)(F)F)ccn2)ccc1-c1nc([C@H]2CN(C=O)[C@@H](C)CO2)n2ccnc(N)c12 [Example 36, 4-{8-amino-3-[(2R,5S)-4-formyl-5-methylmorpholin-2-yl]imidazo[1,5-a]pyrazin-1-yl}-3-methoxy-N-[4-(trifluoromethyl)pyridin-2-yl]benzamide]
- IC50 [1]: 9.31 nM
- IC50 [2]: 1680 nM

SMILES: COc1cc(C(=O)Nc2cc(C(F)(F)F)ccn2)ccc1-c1nc([C@H]2CN(C(=O)C3CN(Cc4ccccc4F)C3)[C@@H](C)CO2)n2ccnc(N)c12 [Example 37, 4-{8-amino-3-[(2R,5S)-4-{[1-(2-fluorobenzyl)azetidin-3-yl]carbonyl}-5-methylmorpholin-2-yl]imidazo[1,5-a]pyrazin-1-yl}-3-methoxy-N-[4-(trifluoromethyl)pyridin-2-yl]benzamide]
- IC50 [1]: 2.77 nM
- IC50 [2]: 702 nM

SMILES: COc1cc(C(=O)Nc2cc(C(F)(F)F)ccn2)ccc1-c1nc([C@H]2CN(C(=O)[C@H](C)O)[C@@H](C)CO2)n2c(Cl)cnc(N)c12 [Example 38, 4-(8-amino-5-chloro-3-{(2R,5S)-4-[(2S)-2-hydroxypropanoyl]-5-methylmorpholin-2-yl}imidazo[1,5-a]pyrazin-1-yl)-3-methoxy-N-[4-(trifluoromethyl)pyridin-2-yl]benzamide]
- IC50 [1]: 2.25 nM
- IC50 [2]: 2800 nM

SMILES: CCOc1cc(C(=O)Nc2cc(C(F)(F)F)n(C)n2)ccc1-c1nc([C@H]2CN(C3CCOCC3)[C@@H](C)CO2)n2ccnc(N)c12 [Example 39, 4-{8-amino-3-[(2R,5S)-5-methyl-4-(tetrahydro-2H-pyran-4-yl)morpholin-2-yl]imidazo[1,5-a]pyrazin-1-yl}-3-ethoxy-N-[1-methyl-5-(trifluoromethyl)-1H-pyrazol-3-yl]benzamide]
- IC50 [1]: 5.87 nM
- IC50 [2]: 3800 nM

SMILES: CCOc1cc(C(=O)Nc2cc(C(F)(F)F)n(C)n2)ccc1-c1nc([C@H]2CN(C3CCOCC3)[C@@H](C)CO2)n2c(Cl)cnc(N)c12 [Example 40, 4-{8-amino-5-chloro-3-[(2R,5S)-5-methyl-4-(tetrahydro-2H-pyran-4-yl)morpholin-2-yl]imidazo[1,5-a]pyrazin-1-yl}-3-ethoxy-N-[1-methyl-5-(trifluoromethyl)-1H-pyrazol-3-yl]benzamide]
- IC50 [1]: 5.87 nM
- IC50 [2]: 4620 nM

SMILES: C[C@H]1CO[C@@H](c2nc(-c3ccc(C(=O)Nc4cc(C(F)(F)F)ccn4)cc3F)c3c(N)ncc(Cl)n23)CN1C(=O)C1CC1 [Example 41, 4-{8-amino-5-chloro-3-[(2R,5S)-4-(cyclopropylcarbonyl)-5-methylmorpholin-2-yl]imidazo[1,5-a]pyrazin-1-yl}-3-fluoro-N-[4-(trifluoromethyl)pyridin-2-yl]benzamide]
- IC50 [1]: 0.626 nM
- IC50 [2]: 383 nM

SMILES: C[C@H](O)C(=O)N1C[C@H](c2nc(-c3ccc(C(=O)Nc4cc(C(F)(F)F)ccn4)cc3F)c3c(N)ncc(Cl)n23)OC[C@@H]1C [Example 42, 4-(8-amino-5-chloro-3-{(2R,5S)-4-[(2S)-2-hydroxypropanoyl]-5-methylmorpholin-2-yl}imidazo[1,5-a]pyrazin-1-yl)-3-fluoro-N-[4-(trifluoromethyl)pyridin-2-yl]benzamide]
- IC50 [1]: 0.4 nM
- IC50 [2]: 364 nM

SMILES: C[C@H]1CO[C@@H](c2nc(-c3ccc(C(=O)Nc4cc(C(F)(F)F)ccn4)cc3)c3c(N)ncc(Cl)n23)CN1C(=O)C1CC1 [Example 43, 4-{8-amino-5-chloro-3-[(2R,5S)-4-(cyclopropylcarbonyl)-5-methylmorpholin-2-yl]imidazo[1,5-a]pyrazin-1-yl}-N-[4-(trifluoromethyl)pyridin-2-yl]benzamide]
- IC50 [1]: 0.784 nM
- IC50 [2]: 562 nM

SMILES: C[C@H]1CO[C@@H](c2nc(-c3ccc(C(=O)Nc4cc(C5CC5)ccn4)cc3F)c3c(N)ncc(Cl)n23)CN1C1CCOCC1 [Example 44, 4-{8-amino-5-chloro-3-[(2R,5S)-5-methyl-4-(tetrahydro-2H-pyran-4-yl)morpholin-2-yl]imidazo[1,5-a]pyrazin-1-yl}-N-(4-cyclopropylpyridin-2-yl)-3-fluorobenzamide]
- IC50 [1]: 0.358 nM
- IC50 [2]: 362 nM

SMILES: C[C@H](O)C(=O)N1C[C@H](c2nc(-c3ccc(C(=O)Nc4cc(C(F)(F)F)ccn4)cc3)c3c(N)ncc(Cl)n23)OC[C@@H]1C [Example 45, 4-(8-amino-5-chloro-3-{(2R,5S)-4-[(2S)-2-hydroxypropanoyl]-5-methylmorpholin-2-yl}imidazo[1,5-a]pyrazin-1-yl)-N-[4-(trifluoromethyl)pyridin-2-yl]benzamide]
- IC50 [1]: 0.68 nM
- IC50 [2]: 512 nM

SMILES: COc1cc(C(=O)Nc2cc(C(F)(F)F)ccn2)ccc1-c1nc([C@H]2CN(C3CCOCC3)[C@@H](C)CO2)n2c(Cl)cnc(N)c12 [Example 46, 4-{8-amino-5-chloro-3-[(2R,5S)-5-methyl-4-(tetrahydro-2H-pyran-4-yl)morpholin-2-yl]imidazo[1,5-a]pyrazin-1-yl}-3-methoxy-N-[4-(trifluoromethyl)pyridin-2-yl]benzamide]
- IC50 [1]: 1.94 nM
- IC50 [2]: 2160 nM

SMILES: COc1cc(C(=O)Nc2cc(C(F)(F)F)ccn2)ccc1-c1nc([C@H]2CN(C(=O)C3CC3)[C@@H](C)CO2)n2c(Cl)cnc(N)c12 [Example 47, 4-{8-amino-5-chloro-3-[(2R,5S)-4-(cyclopropylcarbonyl)-5-methylmorpholin-2-yl]imidazo[1,5-a]pyrazin-1-yl}-3-methoxy-N-[4-(trifluoromethyl)pyridin-2-yl]benzamide]
- IC50 [1]: 5.59 nM
- IC50 [2]: 6090 nM

SMILES: C[C@H]1CO[C@@H](c2nc(-c3ccc(C(=O)Nc4cc(C(F)(F)F)ccn4)cc3F)c3c(N)ncc(Cl)n23)CN1C1CCOCC1 [Example 48, 4-{8-amino-5-chloro-3-[(2R,5S)-5-methyl-4-(tetrahydro-2H-pyran-4-yl)morpholin-2-yl]imidazo[1,5-a]pyrazin-1-yl}-3-fluoro-N-[4-(trifluoromethyl)pyridin-2-yl]benzamide]
- IC50 [1]: 0.303 nM
- IC50 [2]: 397 nM

SMILES: COc1cc(C(=O)Nc2cc(C(F)(F)F)ccn2)ccc1-c1nc([C@H]2CN(C(=O)C3CCOCC3)[C@@H](C)CO2)n2ccnc(N)c12 [Example 49, 4-{8-amino-3-[(2R,5S)-5-methyl-4-(tetrahydro-2H-pyran-4-ylcarbonyl)morpholin-2-yl]imidazo[1,5-a]pyrazin-1-yl}-3-methoxy-N-[4-(trifluoromethyl)pyridin-2-yl]benzamide]
- IC50 [1]: 1.74 nM
- IC50 [2]: 1780 nM

SMILES: COCCC(=O)N1C[C@H](c2nc(-c3ccc(C(=O)Nc4cc(C(F)(F)F)ccn4)cc3OC)c3c(N)nccn23)OC[C@@H]1C [Example 50, 4-{8-amino-3-[(2R,5S)-4-(3-methoxypropanoyl)-5-methylmorpholin-2-yl]imidazo[1,5-a]pyrazin-1-yl}-3-methoxy-N-[4-(trifluoromethyl)pyridin-2-yl]benzamide]
- IC50 [1]: 2.17 nM
- IC50 [2]: 2260 nM

SMILES: COc1cc(C(=O)Nc2cc(C(F)(F)F)ccn2)ccc1-c1nc([C@H]2CN(C(=O)[C@H](C)OC)[C@@H](C)CO2)n2ccnc(N)c12 [Example 51, 4-(8-amino-3-{(2R,5S)-4-[(2S)-2-methoxypropanoyl]-5-methylmorpholin-2-yl}imidazo[1,5-a]pyrazin-1-yl)-3-methoxy-N-[4-(trifluoromethyl)pyridin-2-yl]benzamide]
- IC50 [1]: 4.31 nM
- IC50 [2]: 1410 nM

SMILES: COc1cc(C(=O)Nc2cc(C(F)(F)F)ccn2)ccc1-c1nc([C@H]2CN(C(=O)[C@H](C)O)[C@@H](C)CO2)n2ccnc(N)c12 [Example 52, 4-(8-amino-3-{(2R,5S)-4-[(2S)-2-hydroxypropanoyl]-5-methylmorpholin-2-yl}imidazo[1,5-a]pyrazin-1-yl)-3-methoxy-N-[4-(trifluoromethyl)pyridin-2-yl]benzamide]
- IC50 [1]: 2.26 nM
- IC50 [2]: 1990 nM
